Assay results reported in patent US20230107642A1 (Erasca, Inc., priority 2020, published 2023).

What follows are compounds tested against T1, K-Ras G12C (Homo sapiens, UniProt P01116, G12C) (assay: CAF assay (% CAF; method in Example 7, not in this part)). Conditions: 10 uM compound, 1 h incubation.
T1 construct: This protein contained 188 amino acids in total, including an N-terminal 6-Histidine tag; made in house; host or cells: E. coli BL21
Assay type: binding

SMILES	% CAF @ 10 uM, 1h [%]
C=CC(=O)N1C[C@H](C)N(c2nc(=O)n3c4c(c(-c5cc(Cl)c(F)cc5F)c(C(F)(F)F)cc24)SC[C@@H]3COCCOC)C[C@H]1C (atropisomer, axis not shown) [Example 554, (3S,10S)-7-((2S,5R)-4-acryloyl-2,5-dimethylpiperazin-1-yl)-10-(5-chloro-2,4-difluorophenyl)-3-((2-methoxyethoxy)methyl)-9-(trifluoromethyl)-2H-[1,4]thiazino[2,3,4-ij]quinazolin-5(3H)-one]	11.3
C=CC(=O)N1CCN(c2nc(=O)n3c4c(c(-c5ccc(F)cc5)c(Cl)cc24)SC[C@@H]3CN2CCn3c(nnc3C(F)(F)F)C2)[C@@H](C)C1 [Example 444, (S)-7-((S)-4-acryloyl-2-methylpiperazin-1-yl)-9-chloro-10-(4-fluorophenyl)-3-((3-(trifluoromethyl)-5,6-dihydro-[1,2,4]triazolo[4,3-a]pyrazin-7(8H)-yl)methyl)-2H-[1,4]thiazino[2,3,4-ij]quinazolin-5(3H)-one]	24.1
C=CC(=O)N1CCN(c2nc(=O)n3c4c(c(-c5cc(Cl)c(F)cc5F)c(Cl)cc24)SC[C@@H](OC)C3)CC1 [Example 543, (3S)-8-(4-acryloylpiperazin-1-yl)-10-chloro-11-(5-chloro-2,4-difluorophenyl)-3-methoxy-3,4-dihydro-2H,6H-[1,4]thiazepino[2,3,4-ij]quinazolin-6-one]	97
C=CC(=O)N1C[C@H](C)N(c2nc(=O)n3c4c(c(-c5cccc6cnn(C)c56)c(Cl)cc24)SC[C@@H]3CN2CCN(CC(F)F)CC2)C[C@H]1C (atropisomer, axis not shown) [Example 569, (3S,10R)-7-((2S,5R)-4-acryloyl-2,5-dimethylpiperazin-1-yl)-9-chloro-3-((4-(2,2-difluoroethyl)piperazin-1-yl)methyl)-10-(1-methyl-1H-indazol-7-yl)-2,3-dihydro-5H-[1,4]thiazino[2,3,4-ij]quinazolin-5-one]	93.4
C=CC(=O)N1CCN(c2nc(=O)n3c4c(c(-c5cc(Cl)c(F)cc5F)c(Cl)cc24)SC[C@H](OC)C3)[C@@H](C)C1 [Example 541, (3R)-8-((S)-4-acryloyl-2-methylpiperazin-1-yl)-10-chloro-11-(5-chloro-2,4-difluorophenyl)-3-methoxy-3,4-dihydro-2H,6H-[1,4]thiazepino[2,3,4-ij]quinazolin-6-one]	96
C=CC(=O)N1C[C@H](C)N(c2nc(=O)n3c4c(c(-c5ccc(F)cc5F)c(C(F)(F)F)cc24)SC[C@@H]3COCCOC)C[C@H]1C [Example 498, (3S)-7-((2S,5R)-4-acryloyl-2,5-dimethylpiperazin-1-yl)-10-(2,4-difluorophenyl)-3-((2-methoxyethoxy)methyl)-9-(trifluoromethyl)-2H-[1,4]thiazino[2,3,4-ij]quinazolin-5(3H)-one]	81.2
C=CC(=O)N1CCN(c2nc(=O)n3c4c(c(-c5cc(Cl)c(F)cc5F)c(Cl)cc24)SC[C@@H](OC)C3)[C@@H](C)C1 [Example 529, (3S)-8-((S)-4-acryloyl-2-methylpiperazin-1-yl)-10-chloro-11-(5-chloro-2,4-difluorophenyl)-3-methoxy-3,4-dihydro-2H,6H-[1,4]thiazepino[2,3,4-ij]quinazolin-6-one]	95

The remaining lines, values ahead:

% CAF @ 10 uM, 1h [%]	SMILES
93.3	C=CC(=O)N1CCN(c2nc(=O)n3c4c(c(-c5ccc(F)cc5F)c(Cl)cc24)SC[C@@H]3CN2CCN(C)CC2)[C@@H](C)C1 [Example 411, (3S)-7-((S)-4-acryloyl-2-methylpiperazin-1-yl)-9-chloro-10-(2,4-difluorophenyl)-3-((4-methylpiperazin-1-yl)methyl)-2H-[1,4]thiazino[2,3,4-ij]quinazolin-5(3H)-one]
96	C=CC(=O)N1CCN(c2nc(=O)n3c4c(c(-c5ccc(F)cc5F)c(C(F)(F)F)cc24)SC[C@H](OC)C3)[C@@H](C)C1 [Example 465, (3R)-8-((S)-4-acryloyl-2-methylpiperazin-1-yl)-11-(2,4-difluorophenyl)-3-methoxy-10-(trifluoromethyl)-3,4-dihydro-2H,6H-[1,4]thiazepino[2,3,4-ij]quinazolin-6-one]

Same assay, conditions: 10 uM, 60 min; Table 2a

% CAF 10 uM @ 60 min [%]	SMILES
88.8	C=CC(=O)N1CCN(c2nc(=O)n3c4c(c(-c5ccc(F)cc5F)c(Cl)cc24)S(=O)(=O)CC3)[C@@H](C)C1 [Example 190, 7-((S)-4-acryloyl-2-methylpiperazin-1-yl)-9-chloro-10-(2,4-difluorophenyl)-2,3-dihydro-5H-[1,4]thiazino[2,3,4-ij]quinazolin-5-one 1,1-dioxide]

Same assay, conditions: 10 uM, 1 h; Table 3

% CAF @ 10 uM, 1h [%]	SMILES
91.3	C=CC(=O)N1CCN(c2nc(=O)n3c4c(c(-c5ccccc5F)c(Cl)cc24)SCC3)[C@@H](C)C1 (atropisomer, axis not shown) [Example 123, (R)-7-((S)-4-acryloyl-2-methylpiperazin-1-yl)-9-chloro-10-(2-fluorophenyl)-2,3-dihydro-5H-[1,4]thiazino[2,3,4-ij]quinazolin-5-one]
88.2	C=CC(=O)N1CCN(c2nc(=O)n3c4c(c(-c5ccc(F)cc5F)c(Cl)cc24)S(=O)(=O)CC3)[C@@H](C)C1 [Example 190, 7-((S)-4-acryloyl-2-methylpiperazin-1-yl)-9-chloro-10-(2,4-difluorophenyl)-2,3-dihydro-5H-[1,4]thiazino[2,3,4-ij]quinazolin-5-one 1,1-dioxide]
95.9	C=CC(=O)N1CCN(c2nc(=O)n3c4c(c(-c5ccc(F)cc5F)c(Cl)cc24)S(=O)(=O)CC3)[C@@H](C)C1 [Example 148]
94.8	C=CC(=O)N1CCN(c2nc(=O)n3c4c(c(-c5ccc(F)cc5F)c(Cl)cc24)SCC3)C[C@H]1C [Example 139, 7-((R)-4-acryloyl-3-methylpiperazin-1-yl)-9-chloro-10-(2,4-difluorophenyl)-2,3-dihydro-5H-[1,4]thiazino[2,3,4-ij]quinazolin-5-one]
58	C=CC(=O)N1CCN(c2nc(=O)n3c4c(c(-c5ccc(F)cc5F)c(Cl)cc24)SCC3)C2CCC21 (stereo not drawn) [Example 145, 7-(5-acryloyl-2,5-diazabicyclo[4.2.0]octan-2-yl)-9-chloro-10-(2,4-difluorophenyl)-2,3-dihydro-5H-[1,4]thiazino[2,3,4-ij]quinazolin-5-one]
97	C=CC(=O)N1CCN(c2nc(=O)n3c4c(c(-c5ccc(F)cc5F)c(Cl)cc24)SCC3)[C@@H](C)C1 [Example 193, 7-((S)-4-acryloyl-2-methylpiperazin-1-yl)-9-chloro-10-(2,4-difluorophenyl)-2,3-dihydro-5H-[1,4]thiazino[2,3,4-ij]quinazolin-5-one]
96.6	C=CC(=O)N1CCN(c2nc(=O)n3c4c(c(-c5c(F)cc(F)cc5F)c(Cl)cc24)SC[C@H]3CCCN2C[C@@H]3C[C@H]2CO3)[C@@H](C)C1 [Example 110, (R)-3-(3-((1S,4S)-2-oxa-5-azabicyclo[2.2.1]heptan-5-yl)propyl)-7-((S)-4-acryloyl-2-methylpiperazin-1-yl)-9-chloro-10-(2,4,6-trifluorophenyl)-2,3-dihydro-5H-[1,4]thiazino[2,3,4-ij]quinazolin-5-one]

Same assay, conditions: 10 μM, 1 h; Table 4

% CAF @ 10 μM, 1 h [%]	SMILES
92	C=CC(=O)N1CCN(c2nc(=O)n3c4c(c(-c5ccc(F)cc5F)c(Cl)cc24)SC[C@H]3CC2CCN(CC(F)F)CC2)[C@@H](C)C1 [Example 348, (3R)-7-((S)-4-acryloyl-2-methylpiperazin-1-yl)-9-chloro-3-((1-(2,2-difluoroethyl)piperidin-4-yl)methyl)-10-(2,4-difluorophenyl)-2H-[1,4]thiazino[2,3,4-ij]quinazolin-5(3H)-one]
